Test results from patent publication EP4538272B1, “CRYSTAL OF N-(BENZOYL)-PHE[…], AND PHARMACEUTICAL COMPOSITION THEREOF, AND PREPARATION METHOD THEREFOR AND USE THEREOF” (Hangzhou Apeloa Medicine Research Institute Co., Ltd., priority 2022, dated 2023).
Converted amounts (≈) assume the structure as drawn.

Tests used:
Type in all cases: physicochemical
[1] = Solid-state stability test (high temperature, high humidity, light exposure, acceleration); purity by HPLC, crystal form by XRPD; conditions: for change in the purity and form: 15 days under 60°C, 92.5% RH, 4500lux and 40°C/75% RH, respectively
Method: (§1) Put an appropriate amount of the test sample (the compound shown by Formula (I) in the form of Crystal Form A) on a watch glass, spread it into a thin layer ≤ 5mm thick, and place it under a high temperature of 60°C, a high humidity of 92.5% RH, a light exposure of 4500lux and an acceleration condition of 40°C/75% RH for 15 days, respectively. Sample on the 7th and 15th day to observe the color change of the samples. Analyze the sample purity and crystal form through HPLC and XPRD detection, respectively. Table 5. Test results of Crystal Form A and amorphous stability
as §1, with “(II)” for “(I)”, “B)” for “A)”, “the” for “the 7th and”, “sample.” for “samples.”, “8.” for “5.”, “B” for “A and amorphous”

[2] = Hygroscopicity test with dynamic moisture absorber (DVS); conditions: for Weight gain at 80% RH: 25°C; for hygroscopicity (according to the definition criteria for hygroscopic weight gain): based on weight gain at 80% RH
Method: The hygroscopicity results in the present invention can be measured using a DVS Intrinsic dynamic moisture and gas absorber from Surface Measurement Systems of the UK. Humidity variation: 50%-95%-0%-50%. The humidity change for each gradient within0% ~ 90% is 10%. Airflow: 200ml/min; temperature: 25°C; testing point: one testing point taken every 10% increase in humidity.
Take an appropriate amount of the test sample (the compound shown by Formula (I) in the form of Crystal Form A) to test its hygroscopicity with a dynamic moisture absorber. Table 4. Hygroscopicity test results for Crystal Form A of the present invention
Take an appropriate amount of the test sample (the compound shown by Formula (II) in the form of Crystal Form B) to test its hygroscopicity with a dynamic moisture absorber. Table 7. Hygroscopicity test results for Crystal Form B of the present invention

[3] = Solubility test in biological media (FaSSIF, FeSSIF), HPLC detection; conditions: for solubility (result in words): in FeSSIF and FaSSIF; for solubility at 0.5 h / solubility at 2 h / solubility at 24 h: 37°C
Method: (§2) Add 20mg of the sample (the compound shown by Formula (I) in the form of Crystal Form A) into a 10ml conical tube, and then add 4ml of water or biological medium (FeSSIF (pH 5.0) or FaSSIF (pH 6.5)), respectively. Shake the solution at 37°C for 24h in a constant temperature bath at 1000rpm, and take samples at 0.5h, 2h and 24h, respectively. Filter the samples through an aquo-system microporous filter membrane and discard the initial filtrate to obtain the test solution.
Perform an HPLC detection for the test solution (20µL), and calculate the sample concentration according to the standard curve method. Table 3. Solubility test results of Crystal Form A in different media
as §2, with “(II)” for “(I)”, “B)” for “A)”
Perform an HPLC detection for the test solution (20µL), and calculate the sample concentration according to the standard curve method. Table 6. Solubility test results of Crystal Form B in different media

Row | Structure (SMILES) | purity ([1]; Acceleration 40°C/75%RH, 15d) [%] | purity ([1]; High humidity 92.5%RH, 15d) [%] | purity ([1]; High temperature 60°C, 15d) [%] | purity ([1]; Light exposure 4500lux, 15d) [%] | Weight gain at 80% RH [2] [%] | hygroscopicity (according to the definition criteria for hygroscopic weight gain) [2] | solubility (result in words) [3] | change in the purity and form [1] | Form (crystal form by XRPD) ([1]; Acceleration 40°C/75%RH, 15d) | Form (crystal form by XRPD) ([1]; High humidity 92.5%RH, 15d) | Form (crystal form by XRPD) ([1]; High temperature 60°C, 15d) | Form (crystal form by XRPD) ([1]; Light exposure 4500lux, 15d) | also measured
1 | O=C(N[C@@H](Cc1ccc(N2C(=O)C3(CC3)c3ccc(F)c(F)c32)cc1)C(=O)O)c1c(F)cccc1Cl [Amorphous, (S)-2-(2-chloro-6-fluorobenzoyl amido)-3-(4-(6',7'-difluoro-2'-oxospiro [cyclopropane-1,3'-indoline]-1'-yl)phenyl) propionic acid] | 89.70 | 93.06 | 91.89 | 94.91 |  |  |  |  |  |  |  |  | 
2 | O=C(N[C@@H](Cc1ccc(N2C(=O)C3(CC3)c3ccc(F)c(F)c32)cc1)C(=O)O)c1c(F)cccc1Cl [Crystal Form A, (S)-2-(2-chloro-6-fluorobenzoyl amido)-3-(4-(6',7'-difluoro-2'-oxospiro [cyclopropane-1,3'-indoline]-1'-yl)phenyl) propionic acid] | 99.4 | 99.3 | 99.4 | 99.2 | 0.09 | no or almost no hygroscopicity | good solubility | no significant change | Unchanged | Unchanged | Unchanged | Unchanged | solubility (result in words) ([3]; listed as Crystal form A): relatively good; Form (crystal form by XRPD) ([1]; Acceleration 40°C/75%RH, 7d): Unchanged; purity ([1]; Acceleration 40°C/75%RH, 7d): 99.4%; Form (crystal form by XRPD) ([1]; High humidity 92.5%RH, 7d): Unchanged; purity ([1]; High humidity 92.5%RH, 7d): 99.3%; Form (crystal form by XRPD) ([1]; High temperature 60°C, 7d): Unchanged; purity ([1]; High temperature 60°C, 7d): 99.4%; Form (crystal form by XRPD) ([1]; Light exposure 4500lux, 7d): Unchanged; purity ([1]; Light exposure 4500lux, 7d): 99.2%
3 | O=C(N[C@@H](Cc1ccc(N2C(=O)C3(CC3)c3ccc(F)c(F)c32)cc1)C(=O)O)c1c(F)cccc1Cl [Crystal Form B, (S)-2-(2-chloro-6-fluorobenzoyl amido)-3-(4-(6',7'-difluoro-2'-oxospiro [cyclopropane-1,3'-indoline]-1'-yl)phenyl) propionic acid] |  |  |  |  | 0.71 | a slight hygroscopicity | good solubility | no significant change | Unchanged | Unchanged | Unchanged | Unchanged | solubility at 0.5 h ([3]; FaSSIF (pH 6.5)): 3190 µg/mL (≈ 6.19 mM); solubility at 2 h ([3]; FaSSIF (pH 6.5)): 2960 µg/mL (≈ 5.75 mM); solubility at 24 h ([3]; FaSSIF (pH 6.5)): 2790 µg/mL (≈ 5.42 mM); solubility at 0.5 h ([3]; FeSSIF (pH 5.0)): 869 µg/mL (≈ 1.69 mM); solubility at 2 h ([3]; FeSSIF (pH 5.0)): 815 µg/mL (≈ 1.58 mM); solubility at 24 h ([3]; FeSSIF (pH 5.0)): 734 µg/mL (≈ 1.43 mM); solubility (result in words) ([3]; listed as Crystal form B): relatively good; purity ([1]; Acceleration 40°C/75%RH, 0d): 99.79%; purity ([1]; High humidity 92.5%RH, 0d): 99.79%; purity ([1]; High temperature 60°C, 0d): 99.79%; purity ([1]; Light exposure 4500lux, 0d): 99.79%
